Source: patent US11351168B1 (Celgene CAR LLC, priority 2008, dated 2022)

Legend:
[1] = system: BTK kinase activity (PLCγ2 phosphorylation) in Ramos cells; test: Washout experiment with Ramos cells; type: cell-based, human; conditions: 100 nM compound for 1 hour, then washout
Protocol: Washout Experiment with Ramos Cells
Ramos cells were serum starved for one hour in RPMI media+1% glutamine at 37° C. After starvation, Ramos cells were treated with 100 nM compound diluted in serum free RPMI media for 1 hour. After compound treatment, the media was removed and cells were washed with compound-free media. Subsequently, Ramos cells were washed every 2 hours and resuspended in fresh compound-free media. Cells were collected at specified timepoints, treated with 1 ug anti-human IgM (Southern Biotech cat #2022-01) for 10 minutes on ice to induce BCR signaling and then washed in PBS. Ramos cells were then lysed in Cell Extraction Buffer (Invitrogen FNN0011) supplemented with Roche complete protease inhibitor tablets (Roche 11697498001) and phosphatase inhibitors (Roche 04 906 837 001) and 18 ug total protein lysate was loaded in each lane. Inhibition of BTK kinase activity was assayed by measuring its substrate (PLCγ2) phosphorylation by western blot with phospho-specific antibodies from Cell Signaling Technologies cat #3871. The results of this experiment with compounds I-2, I-4 and I-7 are depicted in FIGS. 1, 2 and 3.

[2] = system: BTK signaling in Ramos cells; test: BTK Ramos cellular assay (phosphorylation of BTK substrate PLCγ2); type: cell-based, human; conditions: Homo sapiens, 1 hour compound, anti-IgM stimulation, read-out: BTK Inhibition (Ramos cellular)
Protocol: Compounds I-2, I-4, and I-7 were assayed in Ramos human Burkitt lymphoma cells. Ramos cells were grown in suspension in T225 flasks, spun down, resuspended in 50 ml serum-free media and incubated for 1 hour. Compound was added to Ramos cells in serum free media to a final concentration of 1, 0.1, 0.01, or 0.001 μM. Ramos cells were incubated with compound for 1 hour, washed again and resuspended in 100 ul serum-free media. Cells were then stimulated with 1 μg of goat F(ab′)2 Anti-Human IgM and incubated on ice for 10 minutes to activate B cell receptor signaling pathways. After 10 minutes, the cells were washed once with PBS and then lysed on ice with Invitrogen Cell Extraction buffer. 16 μg total protein from lysates were loaded on gel and blots were probed for phosphorylation of the BTK substrate PLCγ2.

SMILES | IC50 [2] | BTK Inhibition Type [1]
C=CC(=O)Nc1cccc(Nc2nc(Nc3ccccc3)ncc2F)c1 [Compound I-28, N-(3-(5-fluoro-2-(phenylamino)pyrimidin-4-ylamino)phenyl)acrylamide] | – | irreversible
C=CC(=O)N1CCOc2ccc(Nc3nc(Nc4ccc(OC)nc4)ncc3C(C)=O)cc21 [Compound I-170, 1-{6-[5-Acetyl-2-(6-methoxy-pyridin-3-ylamino)-pyrimidin-4-ylamino]-2,3-dihydro-benzo[1,4]oxazin-4-yl}-propenone] | 10 to 100 nM | –
C=CC(=O)Nc1cccc(Oc2nc(Nc3ccc(OC)nc3)ncc2C(=O)NC2CC2)c1 [Compound I-176, 4-(3-acrylamidophenoxy)-2-(6-methoxypyridin-3-ylamino)-pyrimidine-5-carboxylic acid cyclopropylamide] | 100 to 1000 nM | –
C=CC(=O)Nc1cccc(Oc2nc(Nc3cccc(OC)c3)ncc2C(=O)NC2CC2)c1 [Compound I-177, 4-(3-acrylamidophenoxy)-2-(3-methoxyphenylamino)-pyrimidine-5-carboxylic acid cyclopropylamide] | 100 to 1000 nM | –
C=CC(=O)Nc1cccc(Oc2nc(Nc3cccc(OC)c3)ncc2C(N)=O)c1 [Compound I-178, 4-(3-acrylamidophenoxy)-2-(3-methoxyphenylamino)pyrimidine-5-carboxylic acid amide] | 10 to 100 nM | –
C=CC(=O)N1CCC[C@@H](Oc2nc(Nc3ccc(OC)nc3)ncc2F)C1 [Compound I-180, (R)-1-(3-(5-fluoro-2-(6-methoxypyridin-3-ylamino)pyrimidin-4-yloxy)piperidin-1-yl)prop-2-en-1-one] | 100 to 1000 nM | –
C=C(C)C(=O)c1ccc(Nc2nc(Nc3ccccc3)ncc2F)cc1 [Compound I-185, 1-(4-(5-fluoro-2-(phenylamino)pyrimidin-4-ylamino)phenyl)-2-methylprop-2-en-1-one] | 100 to 1000 nM | –
C=CC(=O)Nc1cccc(Nc2nc(Nc3ccc(OC)nc3)ncc2C(C)=O)c1 [Compound I-189, N-{3-[5-Acetyl-2-(6-methoxy-pyridin-3-ylamino)-pyrimidin-4-ylamino]-phenyl}-acrylamide] | 10 to 100 nM | –
C=CC(=O)N1CCC[C@@H](Oc2nc(Nc3cccc(OC)c3)ncc2F)C1 [Compound I-190, (R)-1-(3-(5-fluoro-2-(3-methoxyphenylamino)pyrimidin-4-yloxy)piperidin-1-yl)prop-2-en-1-one] | 10 to 100 nM | –
C=CC(=O)Nc1cccc(Nc2nc(Nc3ccc(OC)nc3)ncc2OC)c1 [Compound I-192, N-(3-(5-methoxy-2-(6-methoxypyridin-3-ylamino)pyrimidin-4-ylamino)phenyl)acrylamide] | 10 to 100 nM | –
C=CC(=O)N1CCC(Nc2nc(Nc3cccc(OC)c3)ncc2F)C1 (stereo not shown) [Compound I-201, 1-(3-(5-fluoro-2-(3-methoxyphenylamino)pyrimidin-4-ylamino)pyrrolidin-1-yl)prop-2-en-1-one] | 100 to 1000 nM | –
C=CC(=O)N1CCC[C@@H](Nc2nc(Nc3ccc(OC)nc3)ncc2F)C1 [Compound I-202, (R)-1-(3-(5-fluoro-2-(6-methoxypyridin-3-ylamino)pyrimidin-4-ylamino)piperidin-1-yl)prop-2-en-1-one] | 100 to 1000 nM | –
C=CC(=O)Nc1cccc(Nc2nc(Nc3cccc(OCCCN4CCOCC4)c3)ncc2F)c1 [Compound I-208, N-(3-(5-fluoro-2-(3-(3-morpholinopropoxy)phenylamino)pyrimidin-4-ylamino)phenyl)acrylamide] | 10 to 100 nM | –
C=CC(=O)Nc1cccc(Nc2nc(Nc3ccc(OC)nc3)ncc2C(N)=O)c1 [Compound I-209, 4-(3-acrylamidophenylamino)-2-(6-methoxypyridin-3-ylamino)pyrimidine-5-carboxamide] | 10 to 100 nM | –
C=CC(=O)N(C)Cc1cccc(Nc2nc(Nc3ccccc3)ncc2C)c1 [Compound I-220, N-methyl-N-(3-(5-methyl-2-(phenylamino)pyrimidin-4-ylamino)benzyl)acrylamide] | 10 to 100 nM | –
C=CC(=O)Nc1cccc(Nc2nc(Nc3ccc(Cl)c(OCCOC)c3)ncc2F)c1 [Compound I-321, N-(3-(2-(4-chloro-3-(2-methoxyethoxy)phenylamino)-5-fluoropyrimidin-4-ylamino)phenyl)acrylamide] | < 10 nM | –

Second part, led by results:

IC50 [2] | SMILES | BTK Inhibition Type [1]
< 10 nM | C=CC(=O)N1CCOc2ccc(Nc3nc(Nc4ccc(N5CCOCC5)cc4)ncc3C(C)=O)cc21 [Compound I-169, 1-{6-[5-Acetyl-2-(4-morpholin-4-yl-phenylamino)-pyrimidin-4-ylamino]-2,3-dihydro-benzo[1,4]oxazin-4-yl}-propenone] | –
< 10 nM | C=CC(=O)Nc1cccc(Nc2nc(Nc3ccc(OC(C)C)nc3)ncc2F)c1 [Compound I-172, N-(3-(5-fluoro-2-(6-isopropoxypyridin-3-ylamino)pyrimidin-4-ylamino)phenyl)acrylamide] | –
< 10 nM | C=CC(=O)Nc1cccc(Nc2nc(Nc3ccc(OC)nc3)ncc2C#N)c1 [Compound I-173, N-(3-(5-cyano-2-(6-methoxypyridin-3-ylamino)pyrimidin-4-ylamino)phenyl)acrylamide] | –
< 10 nM | C=CC(=O)Nc1cccc(Nc2nc(Nc3ccc4c(c3)NCCO4)ncc2F)c1 [Compound I-174] | –
< 10 nM | C=CC(=O)Nc1cccc(Oc2nc(Nc3ccc(OC)nc3)ncc2C)c1 [Compound I-186, N-(3-(2-(6-methoxypyridin-3-ylamino)-5-methylpyrimidin-4-yloxy)phenyl)acrylamide] | –
< 10 nM | C=CC(=O)Nc1cccc(Oc2nc(Nc3ccc(OC)nc3)ncc2C(C)=O)c1 [Compound I-188, N-{3-[5-Acetyl-2-(6-methoxy-pyridin-3-ylamino)-pyrimidin-4-yloxy]-phenyl}-acrylamide] | –
< 10 nM | C=CC(=O)N1CCOc2ccc(Nc3nc(Nc4ccc(OC)nc4)ncc3F)cc21 [Compound I-194, 1-(6-(5-fluoro-2-(6-methoxypyridin-3-ylamino)pyrimidin-4-ylamino)-2H-benzo[b][1,4]oxazin-4(3H)-yl)prop-2-en-1-one] | –
< 10 nM | C=CC(=O)Nc1cccc(Nc2nc(Nc3ccc(OCCCNC(=O)OC(C)(C)C)cc3)ncc2F)c1 [Compound I-198, tert-butyl 3-(4-(4-(3-acrylamidophenylamino)-5-fluoropyrimidin-2-ylamino)phenoxy)propylcarbamate] | –
< 10 nM | C=CC(=O)Nc1cccc(Nc2nc(Nc3cccc(OCCCn4ccnc4)c3)ncc2F)c1 [Compound I-204, N-(3-(2-(3-(3-(1H-imidazol-1-yl)propoxy)phenylamino)-5-fluoropyrimidin-4-ylamino)phenyl)acrylamide] | –
< 10 nM | C=CC(=O)Nc1cccc(Nc2nc(Nc3cccc(OC)c3)ncc2C(N)=O)c1 [Compound I-210, 4-(3-acrylamidophenylamino)-2-(3-methoxyphenylamino)pyrimidine-5-carboxamide] | –
< 10 nM | C=CC(=O)Nc1cccc(Oc2nc(Nc3ccc(OC)nc3)ncc2F)c1 [Compound I-217] | –
< 10 nM | C=CC(=O)Nc1cccc(Nc2nc(Nc3cccc(OCCN(C)C)c3)ncc2F)c1 [Compound I-233, N-(3-(2-(3-(2-(dimethylamino)ethoxy)phenylamino)-5-fluoropyrimidin-4-ylamino)phenyl)acrylamide] | –
< 10 nM | C=CC(=O)Nc1cccc(Nc2nc(Nc3ccccc3)ncc2C(F)(F)F)c1 [Compound I-245, N-(3-(5-trifluoromethyl-2-(phenylamino)pyrimidin-4-ylamino)phenyl)acrylamide] | –
< 10 nM | C=CC(=O)Nc1cccc(Nc2nc(Nc3ccc(Cl)c(OCC(C)(C)O)c3)ncc2F)c1 [Compound I-249, N-(3-(2-(4-chloro-3-(2-hydroxy-2-methylpropoxy)phenylamino)-5-fluoropyrimidin-4-ylamino)phenyl)acrylamide] | –
< 10 nM | C=CC(=O)Nc1cccc(Nc2nc(Nc3ccc(OCC(C)(C)O)nc3)ncc2F)c1 [Compound I-313, N-(3-(5-fluoro-2-(6-(2-hydroxy-2-methylpropoxy)pyridin-3-ylamino)pyrimidin-4-ylamino)phenyl)acrylamide] | –
< 10 nM | C=CC(=O)Nc1cccc(Nc2nc(Nc3ccc(OCC(C)(C)O)c(F)c3)ncc2F)c1 [Compound I-315, N-(3-(5-fluoro-2-(3-fluoro-4-(2-hydroxy-2-methylpropoxy)phenylamino)pyrimidin-4-ylamino)phenyl)acrylamide] | –
< 10 nM | C=CC(=O)Nc1cccc(Nc2nc(Nc3ccc(O[C@@H]4CCOC4)c(F)c3)ncc2F)c1 [Compound I-316, (R)—N-(3-(5-fluoro-2-(3-fluoro-4-(tetrahydrofuran-3-yloxy)phenylamino)pyrimidin-4-ylamino)phenyl)acrylamide] | –
< 10 nM | C=CC(=O)Nc1cccc(Nc2nc(Nc3ccc(OCCCS(C)(=O)=O)c(F)c3)ncc2F)c1 [Compound I-318, N-(3-(5-fluoro-2-(3-fluoro-4-(3-(methylsulfonyl)propoxy)phenylamino)pyrimidin-4-ylamino)phenyl)acrylamide] | –
